Laboratory results reported in patent publication US20130053381A1, “2,4-DIOXO-1,4-DIHYDRO-2H-QUINAZOLIN-3-YL-SULFONAMIDE DERIVATIVES” (NOVARTIS AG, priority 2010, published 2013).
Where two headings read alike, the source gives them in different places.

Legend:
AMPA receptor = assay: [3H]CNQX binding test (AMPA-receptor binding); parameters: species or system rat
Procedure: CNQX binding test (Honore et al. Biochem. Pharmacol. 1989, 38: 3207-3212). This test is performed as follows.
Brain membranes: The animals are sacrificed, the brain removed and homogenized in 10 volumes of ice-cold 10% sucrose with a glass/Teflon homogenizer at positions 5 for 30 sec. The membranes are centrifuged at 1000×g for 10 min, and the supernatant centrifuged at 20,000×g for 15 min. The resulting pellet is resuspended in 10 volumes of cold water with a tissue homogenizer (Brinkman Polytron) at position 5 for 15 sec and the suspension centrifuged at 8000×g for 10 min. The supernatant including the buffy layer is centrifuged at 40,000×g for 20 min, the pellet resuspended in 5 volumes of water and the suspension frozen (20-30 min in dry ice/MeOH) and thawed (water-bath at 37° C.) twice. The suspension is centrifuged at 40,000×g for 20 min, the pellet resuspended in 50 mM HEPES/KOH, pH 7.5, and centrifuged at 40,000×g for 10 min. The final pellet is resuspended with a glass/Teflon homogenizer in 5 volumes of HEPES/KOH buffer; 2 mL aliquots are frozen and stored in liquid nitrogen.
Pretreatment of membranes: Membranes are thawed at 35° C. and once washed with 50 mM HEPES/KOH by centrifugation at 39,000×g for 10 min. The final pellet is resuspended with a glass/Teflon homogenizer in the same buffer.
Radioligand binding assay: It is performed using 96-well microtiterplates in a volume of 0.3 mL of 50 mM HEPES/KOH, pH 7.2, 100 μg membrane protein, 5 nM [^3H]-CNQX (NEN) and the compound to be tested. Incubation is performed at 4° C. for 40 min and the reaction is terminated by centrifugation (Sigma 4K10) at 3700×g for 30 min. The pellet is washed once with cold buffer and then dissolved in 0.02 mL of the tissue solubilizer Soluene for 20 min. Two hundred μL of the scintillation fluid Microscint 20 (Packard) are added and the radioactivity is counted in a Packard Topcount scintillation counter at an efficiency of 40-45%. Nonspecific binding is defined by 10 μM CNQX. Assays are performed in triplicate.

OF1 mice = assay: Maximal electroshock test (MES Test); assay type: in vivo; details: for responders at 50 mg/kg: p.o.
How it was run: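 Readout: fraction of five OF1 mice protected, meaning seizure duration 3 s or less, after a 50 Hz, 18 mA, 0.2 s temporal-electrode shock. Dosing was oral, usually 50 mg/kg, one hour beforehand; ED50 values were derived and post-shock blood taken for exposure.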

[1] = Table 2 parent compounds, rat, read-out: [3H]CNQX IC50 AMPA receptor binding, rat
[2] = Mus musculus, po, pre-treatment time −1 h, read-out: %-Protection
[3] = Table 1A parent compounds, AMPA-receptor binding as described for Table 2, read-out: IC50

Row | IC50 (AMPA receptor; [3]) [nM] | Compound | further results
1 |  | Cn1nccc1-c1cc2c(=O)n(NS(C)(=O)=O)c(=O)[nH]c2cc1C(F)(F)F [Example 1.0, N-[6-(2-methyl-2H-pyrazol-3-yl)-2,4-dioxo-7-trifluoromethyl-1,4-dihydro-2H-quinazolin-3-yl]-methanesulfonamide] | IC50 (AMPA receptor; [1]): 208 nM; responders at 50 mg/kg (OF1 mice; [2]): 20%
2 |  | CCc1cc2[nH]c(=O)n(NS(C)(=O)=O)c(=O)c2cc1-c1ccnn1C [Example 2.0, N-[7-ethyl-6-(2-methyl-2H-pyrazol-3-yl)-2,4-dioxo-1,4-dihydro-2H-quinazolin-3-yl]-methanesulfonamide] | IC50 (AMPA receptor; [1]): 257 nM; responders at 50 mg/kg (OF1 mice; [2]): 80%
3 |  | CC(C)c1cc2[nH]c(=O)n(NS(C)(=O)=O)c(=O)c2cc1-c1ccnn1C [Example 3.0, N-[7-isopropyl-6-(2-methyl-2H-pyrazol-3-yl)-2,4-dioxo-1,4-dihydro-2H-quinazolin-3-yl]-methanesulfonamide] | IC50 (AMPA receptor; [1]): 189 nM; responders at 15 mg/kg (OF1 mice; Mus musculus, po, Dose: 15 mg/kg, p.o. (footnote c), pre-treatment time −1 h, read-out: %-Protection): 100%; responders at 50 mg/kg (OF1 mice; Mus musculus, po, Table 5, pre-treatment time −0.25 h, read-out: %-Protection): 0%; responders at 50 mg/kg (OF1 mice; Mus musculus, po, Table 5, pre-treatment time −0.5 h, read-out: %-Protection): 100%; responders at 50 mg/kg (OF1 mice; Mus musculus, po, Table 5, pre-treatment time −1 h, read-out: %-Protection): 100%
4 |  | CS(=O)(=O)Nn1c(=O)[nH]c2cc(C(F)(F)F)c(-n3ccnc3)cc2c1=O [Example 4.0, N-(6-imidazol-1-yl-2,4-dioxo-7-trifluoromethyl-1,4-dihydro-2H-quinazolin-3-yl)-methanesulfonamide] | IC50 (AMPA receptor; [1]): 42 nM; ED50 (OF1 mice; Mus musculus, ip, pre-treatment time −0.25 h (footnote g)): 10.7 mg/kg; responders at 50 mg/kg (OF1 mice; [2]): 0%; %-seizure protection (OF1 mice; single 50 mg/kg p.o. dose, 30 min after treatment, MES Test): 0%
5 | 110 | CC(C)n1nccc1-c1cc2c(=O)n(NS(C)(=O)=O)c(=O)[nH]c2cc1C(F)F [Example 35.0] | 
6 | 320 | COCCn1nccc1-c1cc2c(=O)n(NS(C)(=O)=O)c(=O)[nH]c2cc1C(C)C [Example 36.0] | 
7 | 430 | CC(C)c1cc2[nH]c(=O)n(NS(C)(=O)=O)c(=O)c2cc1-c1ccnn1C(C)C [Example 37.0] | 
8 | 470 | CS(=O)(=O)Nn1c(=O)[nH]c2cc(C(F)(F)F)c(-c3ccn[nH]3)cc2c1=O [Example 38.0] | 
9 | 770 | Cn1nccc1-c1cc2c(=O)n(NS(C)(=O)=O)c(=O)[nH]c2cc1CF [Example 39.0] | 
10 | 210 | CC(C)n1nccc1-c1cc2c(=O)n(NS(C)(=O)=O)c(=O)[nH]c2cc1C(C)(F)F [Example 40.0] | 
11 | 580 | Cn1nccc1-c1cc2c(=O)n(NS(C)(=O)=O)c(=O)[nH]c2cc1C(C)(F)F [Example 41.0] | 
12 | 220 | CC(F)c1cc2[nH]c(=O)n(NS(C)(=O)=O)c(=O)c2cc1-c1ccnn1C(C)C (stereo not shown) [Example 42.0] | 
13 | 700 | CC(F)c1cc2[nH]c(=O)n(NS(C)(=O)=O)c(=O)c2cc1-c1ccnn1C (stereo not shown) [Example 43.0] | 
14 | 2200 | CC(C)c1cc2[nH]c(=O)n(NS(C)(=O)=O)c(=O)c2cc1C1CCOC1 (stereo not shown) [Example 44.0] | 
15 | 560 | CC(C)c1cc2[nH]c(=O)n(NS(C)(=O)=O)c(=O)c2cc1-c1ccnn1[C@@H]1CCOC1 [Example 45.0] | 
16 | 1200 | CS(=O)(=O)Nn1c(=O)[nH]c2cc(C(F)(F)F)c(-c3ccnn3C3CCCC3)cc2c1=O [Example 46.0] | 
17 | 370 | CS(=O)(=O)Nn1c(=O)[nH]c2cc(C(F)(F)F)c([C@H]3CO[C@@H](CO)C3)cc2c1=O [Example 47.0] | 
18 | 520 | C[C@@H]1COC[C@@H]1c1cc2c(=O)n(NS(C)(=O)=O)c(=O)[nH]c2cc1C(F)(F)F [Example 48.0] | 
19 | 3500 | CC(C)c1cc2[nH]c(=O)n(NS(C)(=O)=O)c(=O)c2cc1-c1ccnn1-c1ccccc1 [Example 49.0] | 
20 | 1850 | CCOC(C)c1cc2c(=O)n(NS(C)(=O)=O)c(=O)[nH]c2cc1CC (stereo not shown) [Example 50.0] | 
21 | 780 | CC(OCc1ccccc1)c1cc2c(=O)n(NS(C)(=O)=O)c(=O)[nH]c2cc1C(F)(F)F (stereo not shown) [Example 51.0] | 
22 | 1120 | CC(OCC(F)(F)F)c1cc2c(=O)n(NS(C)(=O)=O)c(=O)[nH]c2cc1C(F)(F)F (stereo not shown) [Example 52.0] | 
